Like-named read-outs stand apart in the source and are kept apart here.
How the values were obtained:
[1] = tested on: E. cloacae 1321 E; assay: agar plate dilution method, MIC; type: cell-based, Enterobacter cloacae; details: about 10^7 CFU/ml, 37° C., 18 hours
Method: (§1) The antibacterial activities of the β-methylcarbapenem compounds of the present invention prepared in the above Examples were determined in accordance with the agar plate dilution method(Hoechst 345). Specifically,about 10^7 CFU/ml of test bacteria(Hoechst standard strains) was inoculated to a Muller-Hinton agar medium containing serial double dilutions of the test compounds, i.e., compounds prepared in Examples 1 to 3, and incubated at 37° C. for 18 hours. Tribactam(EP 416953) and SUN-5555(Santory Co., Japan) were employed as control materials for carbapenem and penem, respectively. When the incubation was completed, the minimum inhibitory concentration of each test compounds was determined.

[2] = tested on: P. aeruginosa 1771; assay: agar plate dilution method, MIC; type: cell-based, Pseudomonas aeruginosa; details: about 10^7 CFU/ml, 37° C., 18 hours
Method: as §1

[3] = tested on: P. aeruginosa 1592 E; assay: agar plate dilution method, MIC; type: cell-based, Pseudomonas aeruginosa; details: about 10^7 CFU/ml, 37° C., 18 hours
Method: as §1

[4] = tested on: P. aeruginosa 9027; assay: agar plate dilution method, MIC; type: cell-based, Pseudomonas aeruginosa; details: about 10^7 CFU/ml, 37° C., 18 hours
Method: as §1

[5] = tested on: P. aeruginosa 1771 M; assay: agar plate dilution method, MIC; type: cell-based, Pseudomonas aeruginosa; details: about 10^7 CFU/ml, 37° C., 18 hours
Method: as §1

[6] = tested on: S. pyogenes 77A; assay: agar plate dilution method, MIC; type: cell-based, Streptococcus pyogenes; details: about 10^7 CFU/ml, 37° C., 18 hours
Method: as §1

[7] = tested on: S. pyogenes 308A; assay: agar plate dilution method, MIC; type: cell-based, Streptococcus pyogenes; details: about 10^7 CFU/ml, 37° C., 18 hours
Method: as §1

[8] = tested on: S. aureus 285; assay: agar plate dilution method, MIC; type: cell-based; details: about 10^7 CFU/ml, 37° C., 18 hours
Method: as §1

[9] = tested on: E. coli 078; assay: agar plate dilution method, MIC; type: cell-based; details: about 10^7 CFU/ml, 37° C., 18 hours
Method: as §1

[10] = tested on: S. typhimurium; assay: agar plate dilution method, MIC; type: cell-based; details: about 10^7 CFU/ml, 37° C., 18 hours
Method: as §1

[11] = tested on: S. aureus 503; assay: agar plate dilution method, MIC; type: cell-based; details: about 10^7 CFU/ml, 37° C., 18 hours
Method: as §1

[12] = tested on: S. aureus SG 511; assay: agar plate dilution method, MIC; type: cell-based; details: about 10^7 CFU/ml, 37° C., 18 hours
Method: as §1

[13] = tested on: E. coli 1507 E; assay: agar plate dilution method, MIC; type: cell-based; details: about 10^7 CFU/ml, 37° C., 18 hours
Method: as §1

[14] = tested on: E. coli TEM; assay: agar plate dilution method, MIC; type: cell-based; details: about 10^7 CFU/ml, 37° C., 18 hours
Method: as §1

[15] = tested on: K. oxytoca 1082 E; assay: agar plate dilution method, MIC; type: cell-based; details: about 10^7 CFU/ml, 37° C., 18 hours
Method: as §1

[16] = tested on: E. coli DC 0; assay: agar plate dilution method, MIC; type: cell-based; details: about 10^7 CFU/ml, 37° C., 18 hours
Method: as §1

[17] = tested on: S. faecium MD 8b; assay: agar plate dilution method, MIC; type: cell-based, Streptococcus faecium; details: about 10^7 CFU/ml, 37° C., 18 hours
Method: as §1

[18] = tested on: K. aerogenes 1522 E; assay: agar plate dilution method, MIC; type: cell-based, Klebsiella aerogenes; details: about 10^7 CFU/ml, 37° C., 18 hours
Method: as §1

[19] = tested on: E. cloacae P 99; assay: agar plate dilution method, MIC; type: cell-based, Enterobacter cloacae; details: about 10^7 CFU/ml, 37° C., 18 hours
Method: as §1

[20] = bioavailability indices in infected mice, one-compartment oral model; design: species or system I.C.R. mouse; details: in vivo; for AUC / p.o./s.c. / Cmax / Tmax / half-life: 40 mg/kg; for pharmacokinetics values and p.o. absorption versus controls (in words) / Cmax / Tmax / half-life: po
Method: The in vivo antibacterial activities and pharmacological activities of the β-methylcarbapenem compounds of the present invention were tested as follows. Specifically, 4 to 5 week-old I.C.R. mouse, each weighing 22 to 25 g and infected with Streptococcus pyogenes 77A, were administered per os with the solutions of the compounds of Examples 5 and 9 dissolved in 10% DMSO, at a dosage of 40 mg/kg body weight. The bioavailability indices, e.g., Cmax, Tmax, t1/2, AUC and p.o./s.c. were determined in accordance with one-compartment oral model method(Drug Metabolism Reviews, 17, 331-348(1986)). The one-compartment oral model was prepared by curve fitting using Gauss-Newto method and calculation using PKCALC computer program.

SMILES | minimum inhibitory concentration [1] | minimum inhibitory concentration [2] | minimum inhibitory concentration [3] | minimum inhibitory concentration [4] | minimum inhibitory concentration [5] | minimum inhibitory concentration [6] | minimum inhibitory concentration [7] | minimum inhibitory concentration [8] | minimum inhibitory concentration [9] | minimum inhibitory concentration [10] | minimum inhibitory concentration [11] | minimum inhibitory concentration [12] | minimum inhibitory concentration [13] | minimum inhibitory concentration [14] | minimum inhibitory concentration [15] | minimum inhibitory concentration [16] | minimum inhibitory concentration [17] | minimum inhibitory concentration [18] | p.o./s.c. ([20]; mouse) [%] | half-life ([20]; mouse) [min] | further results
CC(C)[C@@H](O)C1=C(C(=O)O)N2C(=O)[C@H]([C@@H](C)O)[C@H]2[C@H]1C [Example 1, potassium (1S, 5R, 6S)-2-[(1R)-1-hydroxy-2-methylpropyl]-6-[(1R)-1-hydroxyethyl]-1-methyl-2-carbapenem-3-carboxylate] | 0.098 | 100 | > 100 | > 100 | 0.781 | 0.013 | 0.013 | 0.098 | 0.049 | 0.098 | 0.098 | 0.098 | 0.049 | 0.195 | 1.563 | 0.195 | 3.125 | 0.391 | – | – | –
C[C@@H](O)[C@H]1C(=O)N2C(C(=O)O)=C([C@H](O)C3CC3)[C@H](C)[C@H]12 [Example 2, potassium (1S, 5R, 6S)-2-[(R)-(cyclopropyl) hydroxymethyl]-6-[(1R)-1-hydroxyethyl]-1-methyl-2-carbapenem-3-carboxylate] | 0.098 | 100.0 | 100.0 | 100.0 | 1.563 | 0.007 | 0.007 | 0.049 | 0.098 | 0.098 | 0.049 | 0.049 | 0.049 | 0.098 | 0.781 | 0.098 | 0.781 | 0.195 | – | – | –
C[C@@H](O)[C@H]1C(=O)N2C(C(=O)O)=C([C@H](O)C3CCCC3)[C@H](C)[C@H]12 [Example 3, potassium (1S, 5R, 6S)-2-[(R)-(cyclopentyl)hydroxymethyl]-6-[(1R)-1-hydroxyethyl]-1-methyl-2-carbapenem-3-carboxylate] | 0.391 | > 100.0 | > 100.0 | > 100.0 | 1.563 | 0.007 | 0.004 | 0.098 | 0.195 | 0.098 | 0.098 | 0.098 | 0.098 | 0.391 | 1.563 | – | 0.781 | 0.781 | – | – | minimum inhibitory concentration [19]: 6.250
Cc1oc(=O)oc1COC(=O)C1=C([C@H](O)C(C)C)[C@H](C)[C@@H]2[C@@H]([C@@H](C)O)C(=O)N12 [Example 5, (5-methyl-2-oxo-1,3-dioxolen-4-yl)methyl (1S, 5R, 6S)-2-[(1R)-1-hydroxy-2-methylpropyl]-6-[(1R)-1-hydroxyethyl]-1-methyl-2-carbapenem-3-carboxylate] | – | – | – | – | – | – | – | – | – | – | – | – | – | – | – | – | – | – | 32.50 | 16.2 | AUC ([20]; mouse): 3.80; pharmacokinetics values and p.o. absorption versus controls (in words) ([20]; mouse): superior pharmacokinetics values and p.o. absorption over the controls; Cmax ([20]; mouse): 8.77 µg/mL; Tmax ([20]; mouse): 10.2 min
CC(C)OC(=O)OC(C)OC(=O)C1=C([C@H](O)C(C)C)[C@H](C)[C@@H]2[C@@H]([C@@H](C)O)C(=O)N12 (stereo partly drawn) [Example 9, isopropyloxycarbonyloxy-1-ethyl (1S, 5R, 6S)-2-[(1R)-1-hydroxy-2-methylpropyl]-6-[(1R)-1-hydroxyethyl]-1-methyl-2-carbapenem-3-carboxylate] | – | – | – | – | – | – | – | – | – | – | – | – | – | – | – | – | – | – | 32.42 | 19.8 | AUC ([20]; mouse): 6.78; pharmacokinetics values and p.o. absorption versus controls (in words) ([20]; mouse): superior pharmacokinetics values and p.o. absorption over the controls; Cmax ([20]; mouse): 10.4 µg/mL; Tmax ([20]; mouse): 19.8 min
C[C@@H](O)[C@H]1C(=O)N2C(C(=O)O)=C([C@H]3CCCO3)S[C@H]12 [SUN-5555, reference compound] | 0.391 | > 100.0 | > 100.0 | > 100.0 | 3.125 | 0.007 | 0.013 | 0.098 | 0.195 | 0.195 | 0.098 | 0.098 | 0.195 | 0.391 | 0.391 | 0.781 | 6.250 | 0.391 | 22.71 | 22.8 | minimum inhibitory concentration [19]: 1.563; Cmax ([20]; I.C.R. mouse infected with S. pyogenes 77A, per os, 10% DMSO, read-out: Cmax): 2.64 µg/mL; Tmax ([20]; I.C.R. mouse infected with S. pyogenes 77A, per os, 10% DMSO, read-out: Tmax): 25.2 min

Source: patent publication US5869477A, “β-methylcarbapenem derivatives, process for the preparation thereof and pharmaceutical composition comprising same” (priority 1995, dated 1999)
